Measurements: ChEMBL document CHEMBL3885881, “DrugMatrix”

Species: Rattus norvegicus
Assay: DrugMatrix - Regimen: Daily Repeat
Assay type: toxicity, organism-based, Sprague-Dawley
Set-up: regimen Daily Repeat, gender Male, age 6-8 weeks
Conditions: in vivo, po, route oral GAVAGE, vehicle .5 % CMC; for ABSOLUTE BASOPHIL / ABSOLUTE EOSINOPHIL / ABSOLUTE LYMPHOCYTE / ABSOLUTE MONOCYTE / ABSOLUTE SEGMENTED NEUTROPHIL / BASOPHIL / EOSINOPHIL / ERYTHROCYTE COUNT / HEMATOCRIT / HEMOGLOBIN / LEUKOCYTE COUNT / LYMPHOCYTE / MEAN CORPUSCULAR HEMOGLOBIN / MEAN CORPUSCULAR HEMOGLOBIN CONCENTRATION / MEAN CORPUSCULAR VOLUME / MONOCYTE / NEUTROPHIL / NUCLEATED RED BLOOD CELLS / PLATELET COUNT: tissue Blood; for ALANINE AMINOTRANSFERASE / ALBUMIN / ALKALINE PHOSPHATASE / ASPARTATE AMINOTRANSFERASE / BLOOD UREA NITROGEN / CARBON DIOXIDE / CHLORIDE / CHOLESTEROL / CREATINE PHOSPHOKINASE / CREATININE / GLUCOSE / LACTATE DEHYDROGENASE / LIPASE / PHOSPHORUS / POTASSIUM / SODIUM / TOTAL BILIRUBIN / TOTAL PROTEIN / URIC ACID: tissue Plasma
[1] = 10 mg/kg, 72 h, dose level Low, time 3 day
[2] = 10 mg/kg, 120 h, dose level Low, time 5 day
[3] = 1500 mg/kg, 72 h, dose level High, time 3 day
[4] = 1500 mg/kg, 120 h, dose level High, time 5 day

## CCOC(=O)[C@H](CCc1ccccc1)N[C@@H](C)C(=O)N1CCC[C@H]1C(=O)O
[1]
  ABSOLUTE BASOPHIL: 0 CELLS/uL
  ABSOLUTE EOSINOPHIL: 88 CELLS/uL
  ABSOLUTE LYMPHOCYTE: 12760.67 CELLS/uL
  ABSOLUTE MONOCYTE: 130 CELLS/uL
  ABSOLUTE SEGMENTED NEUTROPHIL: 688 CELLS/uL
  BASOPHIL: 0%
  EOSINOPHIL: 0.67%
  ERYTHROCYTE COUNT: 5.43 x10E6/uL
  HEMATOCRIT: 32.83%
  HEMOGLOBIN: 13.1 G/DL
  LEUKOCYTE COUNT: 13.67 x10E3/uL
  LYMPHOCYTE: 93.33%
  MEAN CORPUSCULAR HEMOGLOBIN: 24.13 pg
  MEAN CORPUSCULAR HEMOGLOBIN CONCENTRATION: 39.87 G/DL
  MEAN CORPUSCULAR VOLUME: 60.53 fL
  MONOCYTE: 1%
  NEUTROPHIL: 5%
  NUCLEATED RED BLOOD CELLS: 0.33 /100WBC
  PLATELET COUNT: 1331.67 x10E3/uL
  ALANINE AMINOTRANSFERASE: 46 u/L
  ALBUMIN: 4.5 G/DL
  ALKALINE PHOSPHATASE: 398 u/L
  ASPARTATE AMINOTRANSFERASE: 79 u/L
  BLOOD UREA NITROGEN: 17.67 mg/dL
  CARBON DIOXIDE: 28.33 mmol/L
  CHLORIDE: 98 MEQ/L
  CHOLESTEROL: 60.33 mg/dL
  CREATINE PHOSPHOKINASE: 181.67 u/L
  CREATININE: 0.17 mg/dL
  GLUCOSE: 149.33 mg/dL
  LACTATE DEHYDROGENASE: 115.33 u/L
  LIPASE: 9.67 u/L
  PHOSPHORUS: 11.47 mg/dL
  POTASSIUM: 6.99 MEQ/L
  SODIUM: 142.87 MEQ/L
  TOTAL BILIRUBIN: 0.23 mg/dL
  TOTAL PROTEIN: 6.13 G/DL
  URIC ACID: 1.37 mg/dL
[2]
  ABSOLUTE BASOPHIL: 0 CELLS/uL
  ABSOLUTE EOSINOPHIL: 28.33 CELLS/uL
  ABSOLUTE LYMPHOCYTE: 10805 CELLS/uL
  ABSOLUTE MONOCYTE: 28.33 CELLS/uL
  ABSOLUTE SEGMENTED NEUTROPHIL: 738.33 CELLS/uL
  BASOPHIL: 0%
  EOSINOPHIL: 0.33%
  ERYTHROCYTE COUNT: 5.56 x10E6/uL
  HEMATOCRIT: 34.6%
  HEMOGLOBIN: 13.37 G/DL
  LEUKOCYTE COUNT: 11.6 x10E3/uL
  LYMPHOCYTE: 93%
  MEAN CORPUSCULAR HEMOGLOBIN: 24.03 pg
  MEAN CORPUSCULAR HEMOGLOBIN CONCENTRATION: 38.63 G/DL
  MEAN CORPUSCULAR VOLUME: 62.23 fL
  MONOCYTE: 0.33%
  NEUTROPHIL: 6.33%
  NUCLEATED RED BLOOD CELLS: 0 /100WBC
  PLATELET COUNT: 1173.33 x10E3/uL
  ALANINE AMINOTRANSFERASE: 49.33 u/L
  ALBUMIN: 4.27 G/DL
  ALKALINE PHOSPHATASE: 405.67 u/L
  ASPARTATE AMINOTRANSFERASE: 79.33 u/L
  BLOOD UREA NITROGEN: 17.33 mg/dL
  CARBON DIOXIDE: 26.33 mmol/L
  CHLORIDE: 102.33 MEQ/L
  CHOLESTEROL: 51.67 mg/dL
  CREATINE PHOSPHOKINASE: 399 u/L
  CREATININE: 0.17 mg/dL
  GLUCOSE: 175 mg/dL
  LACTATE DEHYDROGENASE: 121.67 u/L
  LIPASE: 9 u/L
  PHOSPHORUS: 11.1 mg/dL
  POTASSIUM: 6.79 MEQ/L
  SODIUM: 142.87 MEQ/L
  TOTAL BILIRUBIN: 0.23 mg/dL
  TOTAL PROTEIN: 6.07 G/DL
  URIC ACID: 1.2 mg/dL
[3]
  ABSOLUTE BASOPHIL: 0 CELLS/uL
  ABSOLUTE EOSINOPHIL: 63.67 CELLS/uL
  ABSOLUTE LYMPHOCYTE: 17047.67 CELLS/uL
  ABSOLUTE MONOCYTE: 127.33 CELLS/uL
  ABSOLUTE SEGMENTED NEUTROPHIL: 1494.67 CELLS/uL
  BASOPHIL: 0%
  EOSINOPHIL: 0.33%
  ERYTHROCYTE COUNT: 5.46 x10E6/uL
  HEMATOCRIT: 34.33%
  HEMOGLOBIN: 13.63 G/DL
  LEUKOCYTE COUNT: 18.73 x10E3/uL
  LYMPHOCYTE: 91%
  MEAN CORPUSCULAR HEMOGLOBIN: 24.93 pg
  MEAN CORPUSCULAR HEMOGLOBIN CONCENTRATION: 39.7 G/DL
  MEAN CORPUSCULAR VOLUME: 62.93 fL
  MONOCYTE: 0.67%
  NEUTROPHIL: 8%
  NUCLEATED RED BLOOD CELLS: 1 /100WBC
  PLATELET COUNT: 1237.33 x10E3/uL
  ALANINE AMINOTRANSFERASE: 41.33 u/L
  ALBUMIN: 4.27 G/DL
  ALKALINE PHOSPHATASE: 390.33 u/L
  ASPARTATE AMINOTRANSFERASE: 57.33 u/L
  BLOOD UREA NITROGEN: 34.67 mg/dL
  CARBON DIOXIDE: 32.33 mmol/L
  CHLORIDE: 101.67 MEQ/L
  CHOLESTEROL: 58.33 mg/dL
  CREATINE PHOSPHOKINASE: 191.33 u/L
  CREATININE: 0.28 mg/dL
  GLUCOSE: 143 mg/dL
  LACTATE DEHYDROGENASE: 90.33 u/L
  LIPASE: 9 u/L
  PHOSPHORUS: 12.8 mg/dL
  POTASSIUM: 8.04 MEQ/L
  SODIUM: 142.4 MEQ/L
  TOTAL BILIRUBIN: 0.27 mg/dL
  TOTAL PROTEIN: 6 G/DL
  URIC ACID: 1.53 mg/dL
[4]
  ABSOLUTE BASOPHIL: 0 CELLS/uL
  ABSOLUTE EOSINOPHIL: 0 CELLS/uL
  ABSOLUTE LYMPHOCYTE: 15341.33 CELLS/uL
  ABSOLUTE MONOCYTE: 266 CELLS/uL
  ABSOLUTE SEGMENTED NEUTROPHIL: 992.67 CELLS/uL
  BASOPHIL: 0%
  EOSINOPHIL: 0%
  ERYTHROCYTE COUNT: 6.24 x10E6/uL
  HEMATOCRIT: 36.97%
  HEMOGLOBIN: 15.13 G/DL
  LEUKOCYTE COUNT: 16.6 x10E3/uL
  LYMPHOCYTE: 92.33%
  MEAN CORPUSCULAR HEMOGLOBIN: 24.23 pg
  MEAN CORPUSCULAR HEMOGLOBIN CONCENTRATION: 40.93 G/DL
  MEAN CORPUSCULAR VOLUME: 59.27 fL
  MONOCYTE: 1.67%
  NEUTROPHIL: 6%
  NUCLEATED RED BLOOD CELLS: 0.33 /100WBC
  PLATELET COUNT: 1399.33 x10E3/uL
  ALANINE AMINOTRANSFERASE: 39.33 u/L
  ALBUMIN: 4.47 G/DL
  ALKALINE PHOSPHATASE: 328.67 u/L
  ASPARTATE AMINOTRANSFERASE: 73 u/L
  BLOOD UREA NITROGEN: 41 mg/dL
  CARBON DIOXIDE: 25.33 mmol/L
  CHLORIDE: 101.67 MEQ/L
  CHOLESTEROL: 48.67 mg/dL
  CREATINE PHOSPHOKINASE: 295.67 u/L
  CREATININE: 0.37 mg/dL
  GLUCOSE: 149 mg/dL
  LACTATE DEHYDROGENASE: 268.33 u/L
  LIPASE: 9 u/L
  PHOSPHORUS: 10.67 mg/dL
  POTASSIUM: 9.54 MEQ/L
  SODIUM: 140.13 MEQ/L
  TOTAL BILIRUBIN: 0.13 mg/dL
  URIC ACID: 1.4 mg/dL
